Key:
Settings in all cases: primary screen
[1] = tested on: ENR+CD organoids (ISC to Paneth cell differentiation); assay: Primary screen: basal (non-stimulated) lysozyme secretion LYZ.NS, 2.5-D 384-well ENR+CD organoid differentiation; type: cell-based, mouse
From the text: (§1) High-throughput screening.

[2] = tested on: ENR+CD organoids (ISC to Paneth cell differentiation); assay: Primary screen: CCh-stimulated lysozyme secretion LYZ.S, 2.5-D 384-well ENR+CD organoid differentiation; type: cell-based, mouse
From the text: as §1

ENR+CD organoids = assay: Primary screen: ATP (CellTiter-Glo 3D, CTG) cell number/viability, 2.5-D 384-well ENR+CD organoids;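 also: compounds given at plating and again on day 3 over a 6-day differentiation from ENR+CV stem-cell-enriched precursors, ATP measured on day 6, plate median as control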

| SMILES | Dose.FC.LYZ.NS ([1]; dose 0.08 uM) [log2 fold change] | Z.LYZ.NS (standard z score) ([1]; dose 0.08 uM) | Dose.FC.LYZ.NS ([1]; dose 0.40 uM) [log2 fold change] | Z.LYZ.NS (standard z score) ([1]; dose 0.40 uM) | Dose.FC.LYZ.NS ([1]; dose 2.00 uM) [log2 fold change] | Z.LYZ.NS (standard z score) ([1]; dose 2.00 uM) | Dose.FC.LYZ.NS ([1]; dose 10.00 uM) [log2 fold change] | Z.LYZ.NS (standard z score) ([1]; dose 10.00 uM) | Dose.FC.LYZ.S ([2]; dose 0.08 uM) [log2 fold change] | Dose.FC.LYZ.S ([2]; dose 0.40 uM) [log2 fold change] | Dose.FC.LYZ.S ([2]; dose 2.00 uM) [log2 fold change] | Dose.FC.LYZ.S ([2]; dose 10.00 uM) [log2 fold change] | Dose.FC.CTG (ENR+CD organoids; dose 0.08 uM) [log2 fold change] | Z.CTG (standard z score) (ENR+CD organoids; dose 0.08 uM) | Dose.FC.CTG (ENR+CD organoids; dose 0.40 uM) [log2 fold change] | Z.CTG (standard z score) (ENR+CD organoids; dose 0.40 uM) | Dose.FC.CTG (ENR+CD organoids; dose 2.00 uM) [log2 fold change] | Z.CTG (standard z score) (ENR+CD organoids; dose 2.00 uM) | Dose.FC.CTG (ENR+CD organoids; dose 10.00 uM) [log2 fold change] | Z.CTG (standard z score) (ENR+CD organoids; dose 10.00 uM) |
| --- | --- | --- | --- | --- | --- | --- | --- | --- | --- | --- | --- | --- | --- | --- | --- | --- | --- | --- | --- | --- |
| COc1cc(N2CCC(N)CC2)ccc1Nc1ncc(Cl)c(-c2c[nH]c3ccccc23)n1 [AZD3463] | −0.147 | −1.279 | −0.190 | −1.652 | −0.232 | −2.021 | −0.209 | −1.820 | −0.199 | −0.293 | −0.315 | −0.328 | −0.275 | −0.657 | −0.341 | −0.814 | −0.772 | −1.843 | −0.960 | −2.293 |
| Cc1cc([C@@H](C)Nc2ccccc2C(=O)O)c2nc(N3CCOCC3)cc(=O)n2c1 [AZD6482] | 0.108 | 0.944 | 0.076 | 0.660 | −0.130 | −1.129 | −0.248 | −2.160 | 0.182 | 0.156 | −0.114 | −0.253 | 0.240 | 0.572 | 0.223 | 0.533 | −0.509 | −1.215 | −1.203 | −2.874 |
| CN(C)C(=O)c1ccc(S(=O)(=O)c2ccc(NC(=O)[C@@](C)(O)C(F)(F)F)c(Cl)c2)cc1 [AZD7545] | 0.087 | 0.758 | −0.028 | −0.245 | −0.018 | −0.155 | −0.051 | −0.441 | 0.111 | −0.017 | −0.148 | −0.104 | −0.334 | −0.798 | −0.158 | −0.378 | −0.255 | −0.608 | −0.350 | −0.836 |
| NC(=O)Nc1cc(-c2cccc(F)c2)sc1C(=O)N[C@H]1CCCNC1 [AZD7762] | 0.010 | 0.084 | −0.159 | −1.385 | −0.211 | −1.835 | −0.220 | −1.917 | 0.019 | −0.251 | −0.342 | −0.369 | 0.054 | 0.129 | −0.384 | −0.917 | −0.804 | −1.920 | −1.361 | −3.251 |

From patent publication US20220323406A1, “METHODS AND COMPOSITIONS FOR DIFFERENTIATING STEM CELLS” (Massachusetts Institute of Technology, priority 2019, published 2022)
